Test results as given in patent publication US20230339937A1, “CONDENSED RING COMPOUNDS THAT INHIBIT H-PGDS” (SATO PHARMACEUTICAL CO., LTD., priority 2020, published 2023).

Molecular target: T1, Recombinant human H-PGDS (Homo sapiens, UniProt O60760)
T1 construct: made in house; host or cells: E. coli
Test: H-PGDS inhibitory activity (prostaglandin D2 production from prostaglandin H2, measured by LC-MS/MS)
Format: biochemical
Conditions: recombinant human H-PGDS 1.0 nM expressed in E. coli; prostaglandin H2 25 μM; preincubated 15 minutes on ice, reacted on ice for 1 minute; concentration that inhibits prostaglandin D2 production by 50%
In short: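 PGD2 formed from 25 µM prostaglandin H2 during a 1-min on-ice reaction was measured by LC-MS/MS after an FeCl2/citric acid stop. The enzyme was 1.0 nM E. coli-expressed human H-PGDS in Tris-HCl pH 8.0 buffer with MgCl2, reduced glutathione and γ-globulin, preincubated with compound for 15 min on ice. Production was normalised to DMSO controls minus the no-enzyme background.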

T1 sequence (O60760 whole entry): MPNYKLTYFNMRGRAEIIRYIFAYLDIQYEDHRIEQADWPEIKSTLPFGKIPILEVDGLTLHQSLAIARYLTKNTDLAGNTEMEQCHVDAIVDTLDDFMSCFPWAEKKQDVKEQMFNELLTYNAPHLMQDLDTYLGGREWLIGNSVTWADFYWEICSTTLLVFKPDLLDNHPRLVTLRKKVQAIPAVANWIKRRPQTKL

Row | SMILES | IC50 [nM]
1 | CCC(=O)N1CCC(NC(=O)c2ccc(-c3nccc4occc34)cc2)CC1 [Example 234, 4-(furo[3,2-c]pyridin-4-yl)-N-(1-propionylpiperidin-4-yl)benzamide] | 1.6
2 | O=C(NC1CCN(C(=O)C2CC2)CC1)c1ccc(-c2nccc3occc23)cc1 [Example 235, N-[1-(cyclopropanecarbonyl)piperidin-4-yl]-4-(furo[3,2-c]pyridin-4-yl)benzamide] | 1.2
3 | O=C(NC1CCN(C2COC2)CC1)c1ccc(-c2nccc3occc23)cc1 [Example 236, 4-(furo[3,2-c]pyridin-4-yl)-N-[1-(oxetan-3-yl)piperidin-4-yl]benzamide] | 1.1
4 | O=C(NC1CCN(c2nncs2)CC1)c1ccc(-c2nccc3occc23)cc1 [Example 237, N-[1-(1,3,4-thiadiazol-2-yl)piperidin-4-yl]-4-(furo[3,2-c]pyridin-4-yl)benzamide] | 1.2
5 | O=C(NC1CCN(c2cccc3nccn23)CC1)c1ccc(-c2nccc3occc23)cc1 [Example 238, 4-(furo[3,2-c]pyridin-4-yl)-N-[1-(imidazo[1,2-a]pyridin-5-yl)piperidin-4-yl]benzamide] | 3.6
6 | CCn1nnnc1N1CCC(NC(=O)c2ccc(-c3nccc4occc34)cc2)CC1 [Example 239, N-[1-(1-ethyl-1H-tetrazol-5-yl)piperidin-4-yl]-4-(furo[3,2-c]pyridin-4-yl)benzamide] | 1.2
7 | CCCn1nnnc1N1CCC(NC(=O)c2ccc(-c3nccc4occc34)cc2)CC1 [Example 240, 4-(furo[3,2-c]pyridin-4-yl)-N-[1-(1-propyl-1H-tetrazol-5-yl)piperidin-4-yl]benzamide] | 1.6
8 | CCCCn1nnnc1N1CCC(NC(=O)c2ccc(-c3nccc4occc34)cc2)CC1 [Example 241, N-[1-(1-butyl-1H-tetrazol-5-yl)piperidin-4-yl]-4-(furo[3,2-c]pyridin-4-yl)benzamide] | 2.7
9 | CC(C)n1nnnc1N1CCC(NC(=O)c2ccc(-c3nccc4occc34)cc2)CC1 [Example 242, 4-(furo[3,2-c]pyridin-4-yl)-N-[1-(1-isopropyl-1H-tetrazol-5-yl)piperidin-4-yl]benzamide] | 2
10 | O=C(NC1CCN(c2nnnn2C2CC2)CC1)c1ccc(-c2nccc3occc23)cc1 [Example 243, N-[1-(1-cyclopropyl-1H-tetrazol-5-yl)piperidin-4-yl]-4-(furo[3,2-c]pyridin-4-yl)benzamide] | 2
11 | COc1ccc(CN2CCC(NC(=O)c3ccc(-c4nccc5occc45)cc3)CC2)cc1Cl [Example 244, N-[1-(3-chloro-4-methoxybenzyl)piperidin-4-yl]-4-(furo[3,2-c]pyridin-4-yl)benzamide] | 4
12 | CC(C)(O)C(=O)N1CCC(NC(=O)c2ccc(-c3nccc4occc34)cc2)CC1 [Example 245, 4-(furo[3,2-c]pyridin-4-yl)-N-[1-(2-hydroxy-2-methylpropanoyl)piperidin-4-yl]benzamide] | 1.4
13 | O=C(NC1CCN(C(=O)CC(F)(F)F)CC1)c1ccc(-c2nccc3occc23)cc1 [Example 246, 4-(furo[3,2-c]pyridin-4-yl)-N-[1-(3,3,3-trifluoropropanoyl)piperidin-4-yl]benzamide] | 1.8
14 | N#CN1CCC(NC(=O)c2ccc(-c3nccc4occc34)cc2)CC1 [Example 247, N-(1-cyanopiperidin-4-yl)-4-(furo[3,2-c]pyridin-4-yl)benzamide] | 2.3
15 | O=C(NC1CCN(c2nn[nH]n2)CC1)c1ccc(-c2nccc3occc23)cc1 [Example 248, N-[1-(1H-tetrazol-5-yl)piperidin-4-yl]-4-(furo[3,2-c]pyridin-4-yl)benzamide] | 4.4
16 | Cn1nnc(N2CCC(NC(=O)c3ccc(-c4nccc5occc45)cc3)CC2)n1 [Example 249, 4-(furo[3,2-c]pyridin-4-yl)-N-[1-(2-methyl-2 H-tetrazol-5-yl)piperidin-4-yl]benzamide] | 1.6
17 | Cn1nccc1N1CCC(NC(=O)c2ccc(-c3nccc4occc34)cc2)CC1 [Example 250, 4-(furo[3,2-c]pyridin-4-yl)-N-[1-(1-methyl-1H-pyrazol-5-yl)piperidin-4-yl]benzamide] | 3.2
18 | Cn1ccnc1N1CCC(NC(=O)c2ccc(-c3nccc4occc34)cc2)CC1 [Example 251, 4-(furo[3,2-c]pyridin-4-yl)-N-[1-(1-methyl-1H-imidazol-2-yl)piperidin-4-yl]benzamide] | 2
19 | Cn1cc(N2CCC(NC(=O)c3ccc(-c4nccc5occc45)cc3)CC2)cn1 [Example 252, 4-(furo[3,2-c]pyridin-4-yl)-N-[1-(1-methyl-1H-pyrazol-4-yl)piperidin-4-yl]benzamide] | 1.2
20 | Cn1cnc(CO)c1N1CCC(NC(=O)c2ccc(-c3nccc4occc34)cc2)CC1 [Example 253, 4-(furo[3,2-c]pyridin-4-yl)-N-{1-[4-(hydroxymethyl)-1-methyl-1H-imidazol-5-yl]piperidin-4-yl}benzamide] | 1.1

Row | SMILES | IC50 [nM]
21 | CCOC(=O)c1cnc(N2CCC(NC(=O)c3ccc(-c4nccc5occc45)cc3)CC2)o1 [Example 254, ethyl 2-{4-[4-(furo[3,2-c]pyridin-4-yl)benzamide]piperidin-1-yl]oxazole-5-carboxylate] | 4
22 | O=C(NC1CCN(c2ncc(CO)o2)CC1)c1ccc(-c2nccc3occc23)cc1 [Example 255, 4-(furo[3,2-c]pyridin-4-yl)-N-{1-[5-(hydroxymethyl)oxazol-2-yl]piperidin-4-yl}benzamide] | 1.5
23 | O=C(N[C@H]1CC[C@H](O)CC1)c1ccc(-c2nccc3occc23)cc1 [Example 256, 4-(furo[3,2-c]pyridin-4-yl)-N-(trans-4-hydroxycyclohexyl)benzamide] | 2.6
24 | O=C(N[C@H]1CC[C@H](C2(O)CC2)CC1)c1ccc(-c2nccc3occc23)cc1 [Example 257, 4-(furo[3,2-c]pyridin-4-yl)-N-[trans-4-(1-hydroxycyclopropyl)cyclohexyl]benzamide] | 1.6
25 | O=C(N[C@H]1CC[C@H](OCC2(O)CC2)CC1)c1ccc(-c2nccc3occc23)cc1 [Example 258, 4-(furo[3,2-c]pyridin-4-yl)-N-{trans-4-[(1-hydroxycyclopropyl)methoxy]cyclohexyl}benzamide] | 0.93
26 | C[C@]1(O)CC[C@H](NC(=O)c2ccc(-c3nccc4occc34)cc2)CC1 [Example 259, 4-(furo[3,2-c]pyridin-4-yl)-N-(trans-4-hydroxy-4-methylcyclohexyl)benzamide] | 2
27 | O=C(NC12CCC(O)(CC1)CC2)c1ccc(-c2nccc3occc23)cc1 [Example 260, 4-(furo[3,2-c]pyridin-4-yl)-N-(4-hydroxybicyclo[2.2.2]octan-1-yl)benzamide] | 1.9
28 | COC(=O)[C@H]1CC[C@H](NC(=O)c2ccc(-c3nccc4occc34)cc2)CC1 [Example 261, Methyl trans-4-[4-(furo[3,2-c]pyridin-4-yl)benzamide]cyclohexane-1-carboxylate] | 1.6
29 | O=C(N[C@H]1CC[C@@H](O)CC1)c1ccc(-c2nccc3occc23)cc1 [Example 262, 4-(furo[3,2-c]pyridin-4-yl)-N-(cis-4-hydroxycyclohexyl)benzamide] | 2.5
30 | O=C(N[C@H]1CC[C@H](OC(F)F)CC1)c1ccc(-c2nccc3occc23)cc1 [Example 263, N-[trans-4-(difluoromethoxy)cyclohexyl]-4-(furo[3,2-c]pyridin-4-yl)benzamide] | 4.2
31 | O=C(N[C@H]1CC[C@@](O)(C(F)(F)F)CC1)c1ccc(-c2nccc3occc23)cc1 [Example 264, 4-(furo[3,2-c]pyridin-4-yl)-N-[trans-4-hydroxy-4-(trifluoromethyl)cyclohexyl]benzamide] | 3.5
32 | O=C(N[C@H]1C[C@@H](O)C1)c1ccc(-c2nccc3occc23)cc1 [Example 269, 4-(furo[3,2-c]pyridin-4-yl)-N-(cis-3-hydroxycyclobutyl)benzamide] | 5.2
33 | O=C(N[C@H]1C[C@H](O)C1)c1ccc(-c2nccc3occc23)cc1 [Example 270, 4-(furo[3,2-c]pyridin-4-yl)-N-(trans-3-hydroxycyclobutyl)benzamide] | 6.4
34 | O=C(NC12CC3CC(CC(O)(C3)C1)C2)c1ccc(-c2nccc3occc23)cc1 [Example 271, 4-(furo[3,2-c]pyridin-4-yl)-N-(3-hydroxyadamantan-1-yl)benzamide] | 1.2
35 | O=C(NC1C2CC3CC1CC(O)(C3)C2)c1ccc(-c2nccc3occc23)cc1 (stereo not drawn) [Example 272, 4-(furo[3,2-c]pyridin-4-yl)-N-(trans-5-hydroxyadamantan-2-yl)benzamide] | 2.4
36 | CC1(NC(=O)c2ccc(-c3nccc4occc34)cc2)CCC(O)CC1 (stereo not shown) [Example 276, 4-(furo[3,2-c]pyridin-4-yl)-N-(4-hydroxy-1-methylcyclohexyl)benzamide] | 12
37 | CC1(C)CC(NC(=O)c2ccc(-c3nccc4occc34)cc2)CCC1O (stereo not shown) [Example 277, 4-(furo[3,2-c]pyridin-4-yl)-N-(4-hydroxy-3,3-dimethylcyclohexyl)benzamide] | 3.5
38 | O=C(NC12CC(O)(C1)C2)c1ccc(-c2nccc3occc23)cc1 [Example 278, 4-(furo[3,2-c]pyridin-4-yl)-N-(3-hydroxybicyclo[1.1.1]pentan-1-yl)benzamide] | 3.3
39 | CC1(C)CC(O)CC(NC(=O)c2ccc(-c3nccc4occc34)cc2)C1 (stereo not shown) [Example 280, 4-(furo[3,2-c]pyridin-4-yl)-N-(5-hydroxy-3,3-dimethylcyclohexyl)benzamide] | 2.2
40 | O=C(NC1CC2CCC(C1)C2O)c1ccc(-c2nccc3occc23)cc1 (stereo not shown) [Example 281, 4-(furo[3,2-c]pyridin-4-yl)-N-(8-hydroxybicyclo[3.2.1]octan-3-yl)benzamide] | 2
